Measured values: patent US7238775B2, “Receptor(SSTR4)-selective somatostatin analogs” (The Salk Institute for Biological Studies, priority 2002, dated 2007)
Where “and” joins values, the source holds several entries; their conditions need not be identical. Equal entries are not always repeated. Numbered stars: 1 amine (or outer) side, 2 acyl side, 3 side chain; on linkers, the order of the positions; unused ones are H or OH. Bridge positions count the residues as written; N and C are the ends. Square brackets hold non-standard residues; d marks the D form. Ends that are not written are not given here. Peptide text beside a SMILES is read from it. * marks the point of attachment. DOTA = O=C(O)CN1CCN(CC(=O)O)CCN(CC(=O)*)CCN(CC(=O)O)CC1; d2Nal(3S-Me) = C[C@@H](c1ccc2ccccc2c1)[C@@H](N)C(=O)O; X1 = C[C@H](c1ccc2ccccc2c1)[C@H](N[*:1])C(=O)[*:2]; Phe(4-NH2) = Nc1ccc(C[C@H](N)C(=O)O)cc1; 2Nal = N[C@@H](Cc1ccc2ccccc2c1)C(=O)O; X2 = NC(=O)N[C@@H](CS[*:2])C(=O)[*:1]; GABA = NCCCC(=O)O

Key:
Assay in all cases: Displacement of 125I-[Leu8,D-Trp22,Tyr25]SRIF-28 from cloned receptor, membrane pellet autoradiography
Assay type in all cases: binding
hSSTR4 = molecular target: T1, hSSTR4 (Homo sapiens, UniProt P31391); conditions: for IC50: inhibition of 125I-SRIF-28 radioligand binding, cloned human receptor
T1 construct: expressed in transfected cells; host or cells: CHO-K1 cells and CCL39 cells
T1 sequence (P31391 whole entry): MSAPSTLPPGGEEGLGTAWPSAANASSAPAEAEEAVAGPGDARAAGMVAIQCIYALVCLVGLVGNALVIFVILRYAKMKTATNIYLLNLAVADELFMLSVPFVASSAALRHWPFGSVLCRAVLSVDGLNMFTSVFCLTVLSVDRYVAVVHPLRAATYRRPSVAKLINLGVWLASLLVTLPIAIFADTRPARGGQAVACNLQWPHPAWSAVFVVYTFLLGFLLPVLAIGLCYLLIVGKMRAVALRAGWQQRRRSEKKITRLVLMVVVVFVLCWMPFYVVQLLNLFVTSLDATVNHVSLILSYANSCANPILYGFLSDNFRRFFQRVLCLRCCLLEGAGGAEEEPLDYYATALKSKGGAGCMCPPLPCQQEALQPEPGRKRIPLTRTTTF
Procedure: (§1) In vitro Bioassay: The effects of the various somatostatin analogs are tested in vitro for their ability to bind to isolated cloned receptors expressed on CHO-K1 cells and CCL39 cells. CHO-K1 cells are grown in Ham's F-12 medium, and CCL39 cells are grown in Dulbecco's modified Eagle's medium/Ham's F-12(1:1) mix, supplemented with 10% fetal bovine serum, 100 U/ml penicillin and 100 μg/ml streptomycin, in humidified air containing 5% CO2 at 37° C.
(§2) Cells are washed twice with and scraped into ice-cold 0.05 M Tris-HCl (pH 7.4), collected by centrifugation, and homogenized using a rotor/stator/system in the same buffer. After centrifugation at 120 g for 5 min at 4° C., the supernatant is collected and centrifuged again at 48,000 g for 30 min at 4° C. The resulting pellet is resuspended in ice-cold Tris buffer, transferred into a microfuge tube, and centrifuged at 20,000 g for 15 min at 4° C. After withdrawal of the supernatant, the membrane pellet is stored at −80° C.
(§3) Receptor autoradiography is performed on 20 μm thick cryostat sections of the membrane pellets, mounted on microscope slides, and then stored at −20° C. […] Increasing concentrations of the unlabeled peptide are used ranging from 0.1-1000 nM. […] IC50 values are calculated after quantification of the data using a computer-assisted image processing system as known in this art.
(§4) The numbers in parentheses indicate the number of times the particular binding test was carried out.

hSSTR2 = molecular target: T2, hSSTR2 (Homo sapiens, UniProt P30874); conditions: inhibition of 125I-SRIF-28 radioligand binding, cloned human receptor
T2 construct: expressed in transfected cells; host or cells: CHO-K1 cells and CCL39 cells
T2 sequence (P30874 whole entry): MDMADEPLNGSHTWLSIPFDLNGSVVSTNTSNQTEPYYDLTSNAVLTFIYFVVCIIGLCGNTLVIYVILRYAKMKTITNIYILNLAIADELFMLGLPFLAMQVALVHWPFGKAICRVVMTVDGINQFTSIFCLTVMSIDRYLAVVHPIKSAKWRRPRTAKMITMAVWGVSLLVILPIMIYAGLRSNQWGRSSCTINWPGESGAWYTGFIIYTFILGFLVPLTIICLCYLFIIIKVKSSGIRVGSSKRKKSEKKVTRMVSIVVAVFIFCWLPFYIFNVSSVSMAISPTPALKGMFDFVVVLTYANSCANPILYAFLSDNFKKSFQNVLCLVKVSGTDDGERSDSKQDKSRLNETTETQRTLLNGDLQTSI
Procedure: as §1, §2, §3, §4

hSSTR1 = molecular target: T3, hSSTR1 (Homo sapiens, UniProt P30872); conditions: inhibition of 125I-SRIF-28 radioligand binding, cloned human receptor
T3 construct: expressed in transfected cells; host or cells: CHO-K1 cells and CCL39 cells
T3 sequence (P30872 whole entry): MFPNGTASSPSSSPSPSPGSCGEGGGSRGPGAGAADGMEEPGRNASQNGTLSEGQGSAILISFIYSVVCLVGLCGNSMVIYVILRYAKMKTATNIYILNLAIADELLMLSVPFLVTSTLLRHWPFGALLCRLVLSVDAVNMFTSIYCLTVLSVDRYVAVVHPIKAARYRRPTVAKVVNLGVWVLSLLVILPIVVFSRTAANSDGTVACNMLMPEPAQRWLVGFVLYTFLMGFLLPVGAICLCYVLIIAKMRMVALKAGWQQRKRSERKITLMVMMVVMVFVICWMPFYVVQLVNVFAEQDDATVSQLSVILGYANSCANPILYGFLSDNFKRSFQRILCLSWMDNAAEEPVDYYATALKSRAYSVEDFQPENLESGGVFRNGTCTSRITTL
Procedure: as §1, §2
Receptor autoradiography is performed on 20 μm thick cryostat sections of the membrane pellets, mounted on microscope slides, and then stored at −20° C. […] […] […] IC50 values are calculated after quantification of the data using a computer-assisted image processing system as known in this art.
as §4

selectivity in binding to SSTR4 compared with the other 4 receptors (in words) (hSSTR4)	IC50 (hSSTR4)	Compound	also measured
selective in binding to hSSTR4	–	(cyclo)H-Cys-Phe-Ala-Trp-Lys-Thr-Gly-Cys-OH (H-CFAWKTGC-OH; disulfide 1-8 (inferred)) [Peptide 12G]	–
selective in binding to hSSTR4	–	(cyclo)H-Cys-Phe-Ala-Trp-Lys-Thr-Val-Cys-OH (H-CFAWKTVC-OH; disulfide 1-8 (inferred)) [Peptide 12E]	–
selective in binding to hSSTR4	–	(cyclo)H-Cys-Phe-Val-D-Trp-Lys-Thr-Phe-Cys-OH (H-CFV[dW]KTFC-OH; disulfide 1-8; SMILES CC(C)[C@@H]1NC(=O)[C@H](Cc2ccccc2)NC(=O)[C@@H](N)CSSC[C@@H](C(=O)O)NC(=O)[C@H](Cc2ccccc2)NC(=O)[C@H]([C@@H](C)O)NC(=O)[C@H](CCCCN)NC(=O)[C@@H](Cc2c[nH]c3ccccc23)NC1=O) [Peptide 11A]	–

The next lines start with the compound.

Compound	selectivity in binding to SSTR4 compared with the other 4 receptors (in words) (hSSTR4)	IC50 (hSSTR4)	also measured
C[C@@H]1NC(=O)[C@H](Cc2ccccc2)NC(=O)[C@@H](NC(=O)CN2CCN(CC(=O)O)CCN(CC(=O)O)CCN(CC(=O)O)CC2)CSSC[C@@H](C(=O)O)NC(=O)[C@H](Cc2ccccc2)NC(=O)[C@H]([C@@H](C)O)NC(=O)[C@H](CCCCN)NC(=O)[C@H](Cc2c[nH]c3ccccc23)NC1=O [Peptide 12C] ({DOTA}-CFAWKTFC-OH; disulfide 1-8)	continues to show selectivity in binding to hSSTR4	–	–
C[C@@H]1NC(=O)[C@H](Cc2ccccc2)NC(=O)[C@@H](NC(=O)CCCNC(=O)CN2CCN(CC(=O)O)CCN(CC(=O)O)CCN(CC(=O)O)CC2)CSSC[C@@H](C(=O)O)NC(=O)[C@H](Cc2ccccc2)NC(=O)[C@H]([C@@H](C)O)NC(=O)[C@H](CCCCN)NC(=O)[C@H](Cc2c[nH]c3ccccc23)NC1=O [Peptide 12D] ({DOTA-GABA}-CFAWKTFC-OH; disulfide 1-8)	continues to show selectivity in binding to hSSTR4	–	–
C[C@@H](O)[C@@H]1NC(=O)[C@H](CCCCN)NC(=O)[C@@H](Cc2c[nH]c3ccccc23)NC(=O)[C@H](Cc2ccc(N)cc2)NC(=O)[C@H](Cc2ccccc2)NC(=O)[C@@H](NC(N)=O)CSSC[C@@H](C(=O)O)NC(=O)[C@H](Cc2ccccc2)NC1=O [Peptide No. 4, (cyclo)Cbm-Cys-Phe-4Aph-D-Trp-Lys-Thr-Phe-Cys-OH] (F[Phe(4-NH2)][dW]KTFC-OH; linker N-7 via X2)	–	1.1 ± 0.2 nM	–
C[C@@H](O)[C@@H]1NC(=O)[C@H](CCCCN)NC(=O)[C@H](Cc2ccc3ccccc3c2)NC(=O)[C@H](Cc2ccc(N)cc2)NC(=O)[C@H](Cc2ccccc2)NC(=O)[C@@H](N)CSSC[C@@H](C(=O)O)NC(=O)[C@H](Cc2ccccc2)NC1=O [Peptide No. 5, (cyclo)H-Cys-Phe-4Aph-2Nal-Lys-Thr-Phe-Cys-OH] (H-CF[Phe(4-NH2)][2Nal]KTFC-OH; disulfide 1-8)	–	–	IC50 (hSSTR2): > 1000 nM
C[C@@H](O)[C@@H]1NC(=O)[C@H](CCCCN)NC(=O)[C@@H](Cc2c[nH]c3ccccc23)NC(=O)[C@H](Cc2ccc(N)cc2)NC(=O)[C@H](Cc2ccccc2)NC(=O)[C@@H](NC(=O)[C@@H](N)Cc2ccc(O)cc2)CSSC[C@@H](C(=O)O)NC(=O)[C@H](Cc2ccccc2)NC1=O [Peptide No. 7, (cyclo)H-Tyr-Cys-Phe-4Aph-D-Trp-Lys-Thr-Phe-Cys-OH]	–	1.2 ± 0.3 nM	–
C[C@@H](O)[C@@H]1NC(=O)[C@H](CCCCN)NC(=O)[C@H](Cc2c[nH]c3ccccc23)NC(=O)[C@H](Cc2ccc(N)cc2)NC(=O)[C@H](Cc2ccccc2)NC(=O)[C@@H](NC(=O)[C@H](Cc2ccc(O)cc2)NC(N)=O)CSSC[C@@H](C(=O)O)NC(=O)[C@H](Cc2ccccc2)NC1=O [Peptide No. 8, (cyclo)Cbm-Tyr-Cys-Phe-4Aph-Trp-Lys-Thr-Phe-Cys-OH]	–	~1.2 nM and 1.2 nM	–
C[C@@H](O)[C@@H]1NC(=O)[C@H](CCCCN)NC(=O)[C@H](Cc2c[nH]c3ccccc23)NC(=O)[C@H](Cc2ccc(N)cc2)NC(=O)[C@H](Cc2ccccc2)NC(=O)[C@@H](N)CSSC[C@@H](C(=O)O)NC(=O)[C@H](Cc2ccc(O)cc2)NC1=O [Peptide No. 9, (cyclo)H-Cys-Phe-4Aph-Trp-Lys-Thr-Tyr-Cys-OH]	–	1.1 ± 0.2 nM	–
C[C@@H]1NC(=O)[C@H](Cc2ccccc2)NC(=O)[C@@H](N)CSSC[C@@H](C(=O)O)NC(=O)[C@H](Cc2ccccc2)NC(=O)[C@H]([C@@H](C)O)NC(=O)[C@H](CCCCN)NC(=O)[C@@H](Cc2c[nH]c3ccccc23)NC1=O [Peptide No. 11, (cyclo)H-Cys-Phe-Ala-D-Trp-Lys-Thr-Phe-Cys-OH] (H-CFA[dW]KTFC-OH; disulfide 1-8)	selectively binds to SSTR4	0.98 nM	–
C[C@@H]1NC(=O)[C@H](Cc2ccccc2)NC(=O)[C@@H](N)CSSC[C@@H](C(=O)O)NC(=O)[C@H](C)NC(=O)[C@H]([C@@H](C)O)NC(=O)[C@H](CCCCN)NC(=O)[C@H](Cc2c[nH]c3ccccc23)NC1=O [Peptide No. 12A] (H-CFAWKTAC-OH; disulfide 1-8)	–	3.5 ± 0.8 nM	–
C[C@@H]1NC(=O)[C@H](Cc2ccccc2)NC(=O)[C@@H](NC(=O)[C@@H](N)Cc2ccc(O)c(I)c2)CSSC[C@@H](C(=O)O)NC(=O)[C@H](Cc2ccccc2)NC(=O)[C@H]([C@@H](C)O)NC(=O)[C@H](CCCCN)NC(=O)[C@H](Cc2c[nH]c3ccccc23)NC1=O [Peptide No. 13A]	–	~3.5 nM	–
C[C@@H]1NC(=O)[C@H](Cc2ccccc2)NC(=O)[C@@H](NC(=O)[C@@H](N)Cc2ccc(O)cc2)CSSC[C@@H](C(=O)O)NC(=O)[C@H](Cc2ccccc2)NC(=O)[C@H]([C@@H](C)O)NC(=O)[C@H](CCCCN)NC(=O)[C@@H](Cc2c[nH]c3ccccc23)NC1=O [Peptide No. 14, (cyclo)H-Tyr-Cys-Phe-Ala-D-Trp-Lys-Thr-Phe-Cys-OH]	–	1.1 ± 0.2 nM	–
C[C@@H](O)[C@@H]1NC(=O)[C@H](CCCCN)NC(=O)[C@H](Cc2c[nH]c3ccccc23)NC(=O)[C@H](Cc2ccc(CN)cc2)NC(=O)[C@H](Cc2ccccc2)NC(=O)[C@@H](NC(=O)[C@@H](N)Cc2ccc(O)cc2)CSSC[C@@H](C(=O)O)NC(=O)[C@H](Cc2ccccc2)NC1=O [Peptide No. 15, (cyclo)H-Tyr-Cys-Phe-4 Amp-Trp-Lys-Thr-Phe-Cys-OH]	–	–	IC50 (hSSTR1): > 1000 nM
C[C@@H](O)[C@@H]1NC(=O)[C@H](CCCCN)NC(=O)[C@H](Cc2c[nH]c3ccccc23)NC(=O)[C@H](Cc2ccc(CN)cc2)NC(=O)[C@H](Cc2ccccc2)NC(=O)[C@@H](NC(=O)[C@H](Cc2ccc(O)cc2)NC(N)=O)CSSC[C@@H](C(=O)O)NC(=O)[C@H](Cc2ccccc2)NC1=O [Peptide No. 15A, (cyclo)Cbm-Tyr-Cys-Phe-Amp-Trp-Lys-Thr-Phe-Cys-OH]	–	–	IC50 (hSSTR1): > 1000 nM
C[C@H](c1ccc2ccccc2c1)[C@@H]1NC(=O)[C@H](Cc2ccc(O)cc2)NC(=O)[C@H](Cc2ccccc2)NC(=O)[C@H](N)CSSC[C@@H](C(=O)O)NC(=O)[C@H](Cc2ccccc2)NC(=O)[C@H]([C@@H](C)O)NC(=O)[C@H](CCCCN)NC1=O [Peptide No. 16A, (cyclo)H-D-Cys-Phe-Tyr-threo-(2S,3R)C^βMe-2Nal-Lys-Thr-Phe-Cys-OH] (H-[dC]FY[X1]KTFC-OH; disulfide 1-8)	–	3.5 ± 0.5 nM	IC50 (hSSTR1): > 10000 nM; selectivity for SSTR4 over the closest other receptor (hSSTR4): more than 100 times
C[C@@H](O)[C@@H]1NC(=O)[C@H](CCCCN)NC(=O)[C@@H]([C@@H](C)c2ccc3ccccc3c2)NC(=O)[C@H](Cc2ccc(O)cc2)NC(=O)[C@H](Cc2ccccc2)NC(=O)[C@@H](N)CSSC[C@@H](C(=O)O)NC(=O)[C@H](Cc2ccccc2)NC1=O [Peptide No. 17, (cyclo)H-Cys-Phe-Tyr-threo-(2R,3S)C^βMe-2Nal-Lys-Thr-Phe-Cys-OH] (H-CFY[d2Nal(3S-Me)]KTFC-OH; disulfide 1-8)	show selectivity for binding to SSTR4	–	–
C[C@H](c1ccc2ccccc2c1)[C@@H]1NC(=O)[C@H](Cc2ccc(O)cc2)NC(=O)[C@H](Cc2ccccc2)NC(=O)[C@@H](N)CSSC[C@@H](C(=O)O)NC(=O)[C@H](Cc2ccccc2)NC(=O)[C@H]([C@@H](C)O)NC(=O)[C@H](CCCCN)NC1=O [Peptide No. 17A, (cyclo)H-Cys-Phe-Tyr-threo-(2S,3R)C^βMe-2Nal-Lys-Thr-Phe-Cys-OH] (H-CFY[X1]KTFC-OH; disulfide 1-8)	show selectivity for binding to SSTR4	–	IC50 (hSSTR1): > 1000 nM; selectivity for SSTR4 over the closest other receptor (hSSTR4): ~100 times
(cyclo)Cys-Phe-Val-Trp-Lys-Thr-Val-Cys-OH (CFVWKTVC-OH; disulfide 1-8 (inferred)) [Peptide No. 12F]	selective in binding to hSSTR4	–	–
